# Measurements: patent US10316039B2, “P2X3 and/or P2X2/3 compounds and methods” (Asana Biosciences, LLC, priority 2013, dated 2019)
# Key:
# Format in all cases: in vivo
# [1] = system: acetic acid-induced writhing (visceral pain); test: Acetic acid induced writhing test; conditions: mouse, 20, 40 and 60 mg/kg oral gavage, 30 min before i.p. acetic acid, counted 15 min
# Protocol: FIG. 4 illustrates the antinociceptive effects of the compound of example 22 in a mouse model of visceral pain. The compound of example 22 was administered by oral gavage at 3 dose levels (20, 40 and 60 mg/kg) 30 min prior to an intraperitoneal injection of a dilute acetic acid solution. When injected into the abdominal cavity, acetic acid induces a distinctive stretching response in the abdomen and at least one hind limb that is assumed to reflect a response to visceral pain. […] Statistical significance is indicated with respect to the vehicle control group and was performed using a one-way ANOVA followed by Dunnett's multiple comparison test. Swiss albino mice of 30-40 g were included in the study. The mice were given an intraperitoneal injection of 0.7% v/v acetic acid solution at an injection volume of 10 mL/kg, 30 min after oral administration of vehicle or test article control. Test articles were administered, typically, at doses between 20 and 60 mg/kg. The mice were placed individually into glass chambers. The number of writhes produced in these animals was counted for 15 min following acetic acid administration. For scoring purposes writhing was indicated by stretching of the abdomen with simultaneous stretching of at least one hind limb. See, e.g., FIG. 4. Statistical analysis was done with One way ANOVA followed by Dunnett's multiple comparison tests. […]
# [2] = system: formalin-induced hind limb flinching; test: Formalin induced pain (Automated Nociception Analyzer test); conditions: rat, 100 mg/kg oral gavage, 30 min before footpad formalin
# Protocol: FIG. 3 illustrates the antinociceptive effects of the compound of example 22 in a rat model of ongoing spontaneous pain. The compound of example 22 was administered by oral gavage at a dose of 100 mg/kg followed 30 min later by a footpad injection of a dilute formalin solution. Formalin elicits a typical biphasic nociceptive response that manifests as spontaneous hind limb flinches which are counted and binned over 5 min epochs. […] Male Sprague Dawley rats of young adult age group and body weight range of 200-250 g were included in the study. Animals were housed under a 12 h light/dark cycle with food and water ad libitum. Animals were acclimatized in the observation chambers of Automated Nociception Analyzer (ANA) for 45-60 min, twice daily for two days prior to the study day. On the day of the study, metal bands were glued to the plantar surface of the right hind paw of each animal enrolled in the study set and kept in plastic observation chambers for 10-15 min. […] […] count data for each animal was recorded from 1 to 60 min post formalin injection, using ANA motion analysis software. The study was analyzed in 2 phases, the early phase extended from 0-10 min and second phase extended from 11-60 min post formalin injection. […]
# [3] = system: thermal hyperalgesia induced by intraplantar Complete Freund's Adjuvant; test: CFA-induced inflammatory thermal hyperalgesia (Hargreaves test); conditions: rat, 60 mg/kg, dosed 48 h after footpad CFA
# Protocol: (§1) FIG. 2 illustrates the antihyperalgesic effects of the compound of example 22 in a rat model of inflammatory thermal hyperalgesia induced by an intraplantar injection of Complete Freund's Adjuvant (CFA). Thermal hyperalgesia is manifest as a reduction in the time for foot-withdrawal during irradiation with a painful thermal stimulus. The compound of example 22 was administered at a dose of 60 mg/kg, 48 h after footpad injection of CFA and produced a substantial reversal (77% and 68%) of thermal hyperalgesia when assessed at 1 h and 2 h post-dose, respectively.
# as §1, with “5” for “2”, “38” for “22”, “CFA.” for “Complete Freund's Adjuvant (CFA).”, “(50%)” for “(77% and 68%)”, “post-dose.” for “and 2 h post-dose, respectively.”
# as §1, with “6” for “2”, “52” for “22”, “CFA.” for “Complete Freund's Adjuvant (CFA).”, “(39%)” for “(77% and 68%)”, “post-dose.” for “and 2 h post-dose, respectively.”
# Male Sprague Dawley rats of young adult age group and body weight range of 180-200 g were included in the study. Animals were housed under a 12 h light/dark cycle with food and water ad libitum. The animals underwent acclimatization with the observation chambers of the Hargreaves' apparatus for two days, twice daily for 45-60 min each time prior to initiation of study. Animals were also habituated to the apparatus for 15-30 min before each testing. Thermal hyperalgesia was assessed using the rat plantar test (Ugo Basile, Italy) following a modified method of Hargreaves (1988, “A new and sensitive method for measuring thermal nociception in cutaneous hyperalgesia”, Pain 32: 77-88). […]
# Following basal readout of PWL values to the thermal stimulus (PWL measurements described previously), 50 μL of complete Freund's Adjuvant (CFA—1 mg/mL suspension—Sigma, USA, Cat # F5881) was injected subcutaneously into the plantar surface of the right hind (ipsilateral) paw of animals under light isoflurane anesthesia. […]
# Next day (day 1) after 20-22 h of CFA injection, PWL of animals were recorded. Mean of three readings are taken as PWL recording of ipsilateral paw of each animal for pre and post CFA basal readout. […]
structure (smiles),measurement,setting,value
CCc1cnnn1-c1cc(C(=O)NCc2ccc(C)nc2)cn2c(-c3ccc(C)s3)cnc12 [Example 22],pain responses (writhes) after acetic acid,[1],clear dose-related reduction in the pain responses
same,second phase flinching response to formalin,[2],attenuated the second phase flinching response to formalin
same,reversal of thermal hyperalgesia,[3]; assessed 1 h post-dose,77%
same,reversal of thermal hyperalgesia,[3]; assessed 2 h post-dose,68%
C[C@H](NC(=O)c1cc(-n2nncc2C(F)F)c2ncc(-c3ccc(Cl)s3)n2c1)c1nnc[nH]1 [Example 38],reversal of thermal hyperalgesia,[3]; assessed 1 h post-dose,50%
CC[C@H](NC(=O)c1cc(-n2nncc2C(F)F)c2ncc(-c3ccc(C)s3)n2c1)c1nnc[nH]1 [Example 52],reversal of thermal hyperalgesia,[3]; assessed 1 h post-dose,39%
